What was measured:
Sprague-Dawley male rats = test: diuretic effect: urine volume in rats after intraperitoneal injection; assay type: in vivo; details: for Mean Cumulative Volume of Urine, 0-1 hours / Mean Cumulative Volume of Urine, 0-2 hours / Mean Cumulative Volume of Urine, 0-3 hours / Mean Cumulative Volume of Urine, 0-4 hours / Mean Cumulative Volume of Urine, 0-5 hours: 2 mg/kg intraperitoneally, 6 rats, 10 ml water by gastric tube; for Mean Cumulative Volume of Urine, 0-1 hours: saline control 1.1; for Mean Cumulative Volume of Urine, 0-2 hours: saline control 7.2; for Mean Cumulative Volume of Urine, 0-3 hours: saline control 11.4; for Mean Cumulative Volume of Urine, 0-4 hours / Mean Cumulative Volume of Urine, 0-5 hours: saline control 13.5; for diuretic activity: in words
Experimental: The diuretic effect of the intermediates may be studied by injecting the compounds intraperitoneally to adult Sprague-Dawley male rats after an overnight fast. Simultaneously, 10 ml of water is fed to each rat through a gastric tube.

[1] = system: anesthetized Sprague-Dawley rats; test: blood pressure and pulse frequency in anesthetized Sprague-Dawley rats, i.v.; assay type: in vivo
Experimental: The test animals are first anesthetized with urethane. […] The test substance is injected into the femoral vein.

rats = test: toxicity (LD50) in rats; assay type: in vivo; details: in words
[2] = preliminary tests of further pharmacological activities; details: in words
[3] = anti-hypertensive activity in mammals, overall observations; details: in words; for anti-hypertensive activity: in mammals
Experimental: The anti-hypertensive properties of the imidazole derivatives of the invention may be shown by using anesthetized Sprague-Dawley rats of normal weight. The test animals are first anesthetized with urethane. After this the femoral artery is connected by way of a polyethylene tube with a blood pressure transducer. The test substance is injected into the femoral vein. The blood pressure and the pulse frequency are registered with a recorder.
(§1) In a further test unanesthetized Okamoto-Aoki spontaneous hypertensive rats (SHR) are used. The test derivative is administered perorally by way of a tube into the stomach. The blood pressure is measured from the tail using an indirect bloodless method.

[4] = system: Okamoto-Aoki spontaneous hypertensive rats (SHR); test: blood pressure in unanesthetized spontaneous hypertensive rats (SHR), peroral; assay type: in vivo; details: 100 mg/kg p.o.
Experimental: as §1

gastric ulcers = test: anti-ulcer activity: gastric ulcers induced by anti-inflammatory agents (e.g., indomethacin); assay type: in vivo; details: i.p., ulcers counted after three hours, fasted female rats
[5] = in words; prior art; cited from earlier work

In the case of `CCOC(=O)Cc1c[nH]c(Nc2c(Cl)cccc2Cl)n1` [Compound IIb, 4-[2-(2',6'-dichloroanilino)]-imidazoleacetic acid ethyl ester], the “Mean Cumulative Volume of Urine, 0-1 hours” value (Sprague-Dawley male rats) is reported as 3.4 mL, the “Mean Cumulative Volume of Urine, 0-2 hours” value (Sprague-Dawley male rats) is reported as 9.5 mL and the “Mean Cumulative Volume of Urine, 0-3 hours” value (Sprague-Dawley male rats) is reported as 13.4 mL. For the same compound, the “Mean Cumulative Volume of Urine, 0-4 hours” value (Sprague-Dawley male rats) was 14.4 mL and the “Mean Cumulative Volume of Urine, 0-5 hours” value (Sprague-Dawley male rats) was 14.4 mL.
In the case of `Nc1nc(CC(=O)O)cn1-c1c(Cl)cccc1Cl` [Compound Ia, 4-[1-(2',6'-dichlorophenyl)-2-amino]-imidazoleacetic acid], the “Mean Cumulative Volume of Urine, 0-1 hours” value (Sprague-Dawley male rats) is reported as 2.6 mL, the “Mean Cumulative Volume of Urine, 0-2 hours” value (Sprague-Dawley male rats) is reported as 10.2 mL and the “Mean Cumulative Volume of Urine, 0-3 hours” value (Sprague-Dawley male rats) is reported as 13.9 mL. For the same compound, the “Mean Cumulative Volume of Urine, 0-4 hours” value (Sprague-Dawley male rats) was 14.7 mL, the “Mean Cumulative Volume of Urine, 0-5 hours” value (Sprague-Dawley male rats) was 16.4 mL and the diuretic activity (Sprague-Dawley male rats) was “significant diuretic activity”.
With `O=C(O)Cc1c[nH]c(Nc2c(Cl)cccc2Cl)n1` [Compound IIa, 4-[2-(2',6'-dichloroanilino)]-imidazoleacetic acid] the “Mean Cumulative Volume of Urine, 0-1 hours” value (Sprague-Dawley male rats) was 1.3 mL, the “Mean Cumulative Volume of Urine, 0-2 hours” value (Sprague-Dawley male rats) was 8.1 mL and the “Mean Cumulative Volume of Urine, 0-3 hours” value (Sprague-Dawley male rats) was 12.9 mL. For the same compound, the “Mean Cumulative Volume of Urine, 0-4 hours” value (Sprague-Dawley male rats) was 14.3 mL, the “Mean Cumulative Volume of Urine, 0-5 hours” value (Sprague-Dawley male rats) was 14.9 mL and the diuretic activity (Sprague-Dawley male rats) was “significant diuretic activity”.
With `Cc1c[nH]c(Nc2c(Cl)cccc2Cl)n1` [compound II, 2-(2',6'-dichloroanilino)-4-methyl-imidazole] the “Average reduction of blood pressure” value ([1]; 10 mg/kg i.v.) was 25%, the toxicity (rats) was “low toxicity” and the analgesic activity [2] was “analgesic”. The anti-arrhythmic activity [2] was “anti-arrhythmic activity”, the anti-convulsant activity [2] was “anti-convulsant” and the anti-depressant activity [2] was “anti-depressant”. For the same compound, the anti-inflammatory activity [2] was “anti-inflammatory”, the anti-ulcer activity [2] was “anti-ulcer” and the anti-hypertensive activity [3] was “excellent anti-hypertensive activity”. For the same compound, the “reduction of the blood pressure, character and duration” value [3] was “smooth and of relatively long duration” and the “temporary rise of the blood pressure at the beginning of the administration” value [3] was “No temporary rise of the blood pressure is observed”.
For `Cc1cn(-c2c(Cl)cccc2Cl)c(N)n1` [compound I, 1-(2',6'-dichlorophenyl)-2-amino-4-methyl-imidazole], the “Average reduction of blood pressure” value ([1]; 10 mg/kg i.v.) was 25%, the “Average reduction of pulse frequency” value ([1]; 10 mg/kg i.v.) was 20% and the “Average reduction of blood pressure” value ([1]; 3,3 mg/kg i.v.) was 20%. For the same compound, the “Average reduction of blood pressure” value [4] was 35%, the minimal effective dose (gastric ulcers; Rattus norvegicus, ip, 3 h, doses as small as, read-out: smallest dose effective in reducing the number of ulcers) was 1 mg/kg and the “dose that prevents the formation of gastric ulcers” value (gastric ulcers) was about 20 mg/kg. For the same compound, the analgesic activity [2] was “analgesic”, the anti-arrhythmic activity [2] was “anti-arrhythmic activity” and the anti-convulsant activity [2] was “anti-convulsant”. The anti-depressant activity [2] was “anti-depressant”, the anti-inflammatory activity [2] was “anti-inflammatory” and the anti-ulcer activity [2] was “anti-ulcer”. The anti-hypertensive activity [3] was “excellent anti-hypertensive activity”, the “reduction of the blood pressure, character and duration” value [3] was “smooth and of relatively long duration” and the “temporary rise of the blood pressure at the beginning of the administration” value [3] was “No temporary rise of the blood pressure is observed”.
In the case of `CCOC(=O)Cc1cn(-c2c(Cl)cccc2Cl)c(N)n1` [Compound Ib, 4-[1-(2',6'-dichlorophenyl)-2-amino]-imidazoleacetic acid ethyl ester], the “Mean Cumulative Volume of Urine, 0-1 hours” value (Sprague-Dawley male rats) is reported as 2.3 mL, the “Mean Cumulative Volume of Urine, 0-2 hours” value (Sprague-Dawley male rats) is reported as 10.9 mL and the “Mean Cumulative Volume of Urine, 0-3 hours” value (Sprague-Dawley male rats) is reported as 12.3 mL. The “Mean Cumulative Volume of Urine, 0-4 hours” value (Sprague-Dawley male rats) was 14.5 mL and the “Mean Cumulative Volume of Urine, 0-5 hours” value (Sprague-Dawley male rats) was 15.7 mL.
For `Clc1cccc(Cl)c1N=C1NCCN1` [clonidine, 2-(2,6-dichloroanilino)-2-imidazoline], the “temporary rise of the blood pressure at the beginning of administration” value [5] is listed as “temporary rise in blood pressure at the beginning of administration”.

Source: US4275072A, “2,6-Dichlorophenyl-substituted amino-imidazole derivatives and use as hypertensive agents” (priority 1979, dated 1981)
